Data: US20230116114A1, “COMPOUNDS AND COMPOSITIONS FOR TREATING CNS DISORDERS” (Blue Oak Pharmaceuticals, Inc., priority 2020, published 2023)
Counter-ions that a name gives are not always drawn.

Test system: mice
Assay: SmartCube in vivo neuropharmacological behavioral assay
Details: for minimal effective dose: Mus musculus, ip, 0.25 h, dose having 50% or more total activity in SmartCube, i.p., read-out: MED (minimal effective dose); for AD: antidepressant (percent probability) / AG: analgesic (percent probability) / AP: antipsychotic (percent probability) / AX: anxiolytic (percent probability) / CE: cognitive enhancer (percent probability) / HA: hallucinogenic (percent probability) / MS: mood stabilizer (percent probability) / PS (percent probability) / SD: sedative hypnotic (percent probability) / SE: side effects (percent probability) / UN: uncharacterized CNS activity (percent probability) / XG: anxiogenic (percent probability): SmartCube, i.p. 15 min before test, result at the MED
Procedure, shortened: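 Mice dosed i.p. in NMP (Pharmasolve) 15 min before automated video behavioral testing at several doses (e.g., 0.3-30 mpk). Signatures compared to reference drug classes giving per-class probabilities (0-100); MED is the lowest dose with ≥50% total activity.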

SMILES | minimal effective dose | AD: antidepressant (percent probability) | AG: analgesic (percent probability) | AP: antipsychotic (percent probability) | AX: anxiolytic (percent probability) | CE: cognitive enhancer (percent probability) | HA: hallucinogenic (percent probability) | MS: mood stabilizer (percent probability) | PS (percent probability) | SD: sedative hypnotic (percent probability) | SE: side effects (percent probability) | UN: uncharacterized CNS activity (percent probability) | XG: anxiogenic (percent probability)
c1ccc2c(c1)C1CCCC2N1C1CCC1 [Compound 10, 12-Cyclobutyl-12-azatricyclo[6.3.1.0^2,7]dodeca-2,4,6-triene hydrochloride] | 1 to 10 mg/kg | ++++ (50% ≤ X < 100%) | ++ (5% ≤ X < 25%) | + (LOQ ≤ X < 5%) | ++ (5% ≤ X < 25%) | + (LOQ ≤ X < 5%) | ++ (5% ≤ X < 25%) | + (LOQ ≤ X < 5%) | ++ (5% ≤ X < 25%) | + (LOQ ≤ X < 5%) | + (LOQ ≤ X < 5%) | + (LOQ ≤ X < 5%) | + (LOQ ≤ X < 5%)
CO[C@H]1CC[C@H]2c3ccccc3[C@@H]1N2C(C)C (stereo in doubt) [Compound 28, 9-methoxy-12-(propan-2-yl)-12-azatricyclo[6.3.1.0^2,7]dodeca-2,4,6-triene hydrochloride] | 10 to 30 mg/kg | ++ (5% ≤ X < 25%) | ++ (5% ≤ X < 25%) | + (LOQ ≤ X < 5%) | ++ (5% ≤ X < 25%) | + (LOQ ≤ X < 5%) | + (LOQ ≤ X < 5%) | + (LOQ ≤ X < 5%) | ++ (5% ≤ X < 25%) | + (LOQ ≤ X < 5%) | + (LOQ ≤ X < 5%) | +++ (25% ≤ X < 50%) | + (LOQ ≤ X < 5%)
c1ccc(CCN2C3CCCC2c2ccccc23)cc1 [Compound 5, 12-(2-Phenylethyl)-12-azatricyclo[6.3.1.0^2,7]dodeca-2,4,6-triene] | 10 to 30 mg/kg | ++ (5% ≤ X < 25%) | + (LOQ ≤ X < 5%) | ++ (5% ≤ X < 25%) | ++ (5% ≤ X < 25%) | + (LOQ ≤ X < 5%) | + (LOQ ≤ X < 5%) | + (LOQ ≤ X < 5%) | + (LOQ ≤ X < 5%) | + (LOQ ≤ X < 5%) | + (LOQ ≤ X < 5%) | +++ (25% ≤ X < 50%) | + (LOQ ≤ X < 5%)
c1ccc2c(c1)C1CCCC2N1C1CCCCC1 [Compound 13, 12-Cyclohexyl-12-azatricyclo[6.3.1.0^2,7]dodeca-2,4,6-triene hydrochloride] | 10 to 30 mg/kg | +++ (25% ≤ X < 50%) | + (LOQ ≤ X < 5%) | + (LOQ ≤ X < 5%) | ++ (5% ≤ X < 25%) | + (LOQ ≤ X < 5%) | + (LOQ ≤ X < 5%) | + (LOQ ≤ X < 5%) | ++ (5% ≤ X < 25%) | + (LOQ ≤ X < 5%) | + (LOQ ≤ X < 5%) | + (LOQ ≤ X < 5%) | + (LOQ ≤ X < 5%)
CC(C1CC1)N1C2CCCC1c1ccccc12 (centres unmarked) [Compound 21, 12-(1-Cyclopropylethyl)-12-azatricyclo[6.3.1.0]dodeca-2,4,6-triene hydrochloride] | 0.1 to 1 mg/kg | +++ (25% ≤ X < 50%) | ++ (5% ≤ X < 25%) | + (LOQ ≤ X < 5%) | ++ (5% ≤ X < 25%) | + (LOQ ≤ X < 5%) | + (LOQ ≤ X < 5%) | + (LOQ ≤ X < 5%) | + (LOQ ≤ X < 5%) | + (LOQ ≤ X < 5%) | + (LOQ ≤ X < 5%) | + (LOQ ≤ X < 5%) | + (LOQ ≤ X < 5%)
c1ccc2c(c1)C1CCCC2N1C1CCOC1 (centres unmarked) [Compound 9, 12-(Oxolan-3-yl)-12-azatricyclo[6.3.1.0^2,7]dodeca-2,4,6-triene hydrochloride] | 10 to 30 mg/kg | +++ (25% ≤ X < 50%) | ++ (5% ≤ X < 25%) | + (LOQ ≤ X < 5%) | ++ (5% ≤ X < 25%) | + (LOQ ≤ X < 5%) | + (LOQ ≤ X < 5%) | + (LOQ ≤ X < 5%) | + (LOQ ≤ X < 5%) | + (LOQ ≤ X < 5%) | + (LOQ ≤ X < 5%) | ++ (5% ≤ X < 25%) | ++ (5% ≤ X < 25%)
CCCC(C)N1C2CCCC1c1ccccc12 (centres unmarked) [Compound 16, 12-(Pentan-2-yl)-12-azatricyclo[6.3.1.0^20.7]dodeca-2,4,6-triene hydrochloride] | 10 to 30 mg/kg | +++ (25% ≤ X < 50%) | ++ (5% ≤ X < 25%) | + (LOQ ≤ X < 5%) | ++ (5% ≤ X < 25%) | + (LOQ ≤ X < 5%) | ++ (5% ≤ X < 25%) | + (LOQ ≤ X < 5%) | + (LOQ ≤ X < 5%) | + (LOQ ≤ X < 5%) | + (LOQ ≤ X < 5%) | ++ (5% ≤ X < 25%) | + (LOQ ≤ X < 5%)
c1ccc2c(c1)C1CCCC2N1C1CC1 [Compound 15, 12-Cyclopropyl-12-azatricyclo[6.3.1.0^20.7]dodeca-2,4,6-triene hydrochloride] | 10 to 30 mg/kg | ++++ (50% ≤ X < 100%) | ++ (5% ≤ X < 25%) | + (LOQ ≤ X < 5%) | ++ (5% ≤ X < 25%) | + (LOQ ≤ X < 5%) | + (LOQ ≤ X < 5%) | + (LOQ ≤ X < 5%) | ++ (5% ≤ X < 25%) | + (LOQ ≤ X < 5%) | + (LOQ ≤ X < 5%) | + (LOQ ≤ X < 5%) | ++ (5% ≤ X < 25%)
CCN1C2CCCC1c1ccccc12 [Compound 6, 12-Ethyl-12-azatricyclo[6.3.1.0,]dodeca-2,4,6-triene hydrochloride] | 10 to 30 mg/kg | +++ (25% ≤ X < 50%) | ++ (5% ≤ X < 25%) | + (LOQ ≤ X < 5%) | ++ (5% ≤ X < 25%) | + (LOQ ≤ X < 5%) | + (LOQ ≤ X < 5%) | + (LOQ ≤ X < 5%) | + (LOQ ≤ X < 5%) | + (LOQ ≤ X < 5%) | + (LOQ ≤ X < 5%) | + (LOQ ≤ X < 5%) | + (LOQ ≤ X < 5%)
CC1CC2c3ccccc3C(C1)N2C1CCC1 (centres unmarked) [Compound 36, 12-Cyclobutyl-10-methyl-12-azatricyclo[6.3.1.0^2,7]dodeca-2,4,6-triene hydrochloride] | 1 to 10 mg/kg | ++++ (50% ≤ X < 100%) | + (LOQ ≤ X < 5%) | + (LOQ ≤ X < 5%) | + (LOQ ≤ X < 5%) | + (LOQ ≤ X < 5%) | ++ (5% ≤ X < 25%) | + (LOQ ≤ X < 5%) | + (LOQ ≤ X < 5%) | + (LOQ ≤ X < 5%) | + (LOQ ≤ X < 5%) | ++ (5% ≤ X < 25%) | + (LOQ ≤ X < 5%)
CC([C@@H](C)F)N1C2CCCC1c1ccccc12 (stereo in doubt) [Compound 23, 12-(3-Fluorobutan-2-yl)-12-azatricyclo[6.3.1.0^2,7]dodeca-2,4,6-triene hydrochloride] | > 30 mg/kg | + (LOQ ≤ X < 5%) | + (LOQ ≤ X < 5%) | + (LOQ ≤ X < 5%) | + (LOQ ≤ X < 5%) | + (LOQ ≤ X < 5%) | + (LOQ ≤ X < 5%) | + (LOQ ≤ X < 5%) | + (LOQ ≤ X < 5%) | + (LOQ ≤ X < 5%) | + (LOQ ≤ X < 5%) | ++ (5% ≤ X < 25%) | + (LOQ ≤ X < 5%)
